The values below come from patent publication US20100240093A1, “Isolated Staphylococcus Pseudolugdunensis” (priority 2006, published 2010).

The test system of one assay is “S. pettenkoferi”. The arrangement: key: “R”, resistant; “S”, susceptible; “v”, variable. To be noted: Trulzsch et al. (2002); cited from earlier work.
The subject of a further assay is S. auricularis. Also on record: key: “R”, resistant; “S”, susceptible; “v”, variable. The settings on record: cited from earlier work.
For the next assay, the system named is isolate B287. The assay can be described thus: Novobiocin and polymyxin B resistance, phenotypic methods. In kind it is cell-based, Staphylococcus pseudolugdunensis. The arrangement: key: “R”, resistant; “S”, susceptible; “v”, variable. The source says: (§1) Both clinical isolates and reference isolates were first identified by the conventional method based on colony size and pigment; anaerobic and aerobic growth; the presence of clumping factor, Staphaurex latex agglutination (Murex Diagnostics Inc., Norcross, Ga.), hemolysins, oxidase, ODC, urease, and PYR (De Paulis, A. N., et al (2003) J. Clin. Microbiol. 41: 1219-24, 16, 25, 33). Species identification further confirmed by using an API STAPH (bioMerieux Vitek, Inc., Hazelwood, Mo.) according to the manufacturer's instructions (Brun, Y., et al (1990) J. Clin. Microbiol. 8: 503-8; Chapin, K., and M. Musgnug (2003) J. Clin. Microbiol. 41: 4324-7; Gemmell, C. G., and J. E. Dawson (1982) J. Clin. Microbiol. 16:874-7; Heikens, E., et al (2005) J. Clin. Microbiol. 43: 2286-90; Layer, F., B. et al (2006) J. Clin. Microbiol. 44: 2824-30.). PYR and ODC were performed with S. aureus (ATCC#25923) and S. lugdunensis (ATCC#700328) included as negative and positive controls, respectively. Biochemical tests included acid production from D-glucose, D-trehalose, D-mannitol, D-mannose, xylose, maltose, lactose, sucrose, N-acetylglucosamine, raffinose, D-fructose, D-melibiose, xylitol, and α-methyl-glucosamine; nitrate reduction; and alkaline phosphatase, arginine dihydrolase, urease, and acetoin production. […] Biochemical reactions, including catalase, coagulase, D-glucose, D-mannitol, D-fructose, galactose, lactose, maltose, sucrose, D-trehalose, xylose, nitrate reduction, arginine dihydrolase, urease, and novobiocin and polymyxin B resistance, were further confirmed at the Tennessee Department of Health Laboratory Services in Nashville, Tenn., using phenotypic methods recommended by the United States Centers for Disease Control (CDC), Atlanta, Ga. (Kloose, W. E. and T. L. Bannerman (1995) Staphylococcus and Micrococcus, p. 282-298, in P. R. Murray et al. (eds.) Manual of Clinical Microbiology, 6th ed., American Society for Microbiology Press, Washington, D.C.; Kloose, W. E. and K. H. Schleifer (1975) J. Clin. Microbiol. 1: 82-88).

In another assay the test system is isolate B837. Described as above. The arrangement: key: “R”, resistant; “S”, susceptible; “v”, variable. It is filed as cell-based, Staphylococcus pseudolugdunensis.
Description: as §1

The test system of a further assay is isolate B334. The description is as above. It is filed as cell-based, Staphylococcus pseudolugdunensis. Also on record: key: “R”, resistant; “S”, susceptible; “v”, variable.
Description: as §1

The next assay concerns isolate B277. Described as above. Also on record: key: “R”, resistant; “S”, susceptible; “v”, variable. In kind it is cell-based, Staphylococcus pseudolugdunensis.
Description: as §1

A further assay has as its system isolate B292. Described as above. In kind it is cell-based, Staphylococcus pseudolugdunensis. Also on record: key: “R”, resistant; “S”, susceptible; “v”, variable.
Description: as §1

A further assay deals with Unknowns (n = 12). The experiment in a line: Novobiocin and polymyxin B resistance, summary of isolates. In kind it is cell-based, Staphylococcus pseudolugdunensis. The settings on record: for Summary: resistance percentage: Unknowns (n = 12).
Description: as §1

For a further assay, the system named is S. epidermidis. Also on record: key: “R”, resistant; “S”, susceptible; “v”, variable. The settings on record: cited from earlier work.
Another assay concerns S. lugdunensis. The arrangement: key: “R”, resistant; “S”, susceptible; “v”, variable. To be noted: cited from earlier work.
Another assay has as its system isolate B006. The experiment in a line: Novobiocin and polymyxin B resistance, phenotypic methods. In kind it is cell-based, Staphylococcus pseudolugdunensis. The arrangement: key: “R”, resistant; “S”, susceptible; “v”, variable.
Description: as §1

The next assay relates to isolate B230. Described as above. In kind it is cell-based, Staphylococcus pseudolugdunensis. The arrangement: key: “R”, resistant; “S”, susceptible; “v”, variable.
Description: as §1

In another assay the test system is isolate B060. The assay is described as above. In kind it is cell-based, Staphylococcus pseudolugdunensis. The arrangement: key: “R”, resistant; “S”, susceptible; “v”, variable.
Description: as §1

The next assay concerns isolate B354. The assay is described as above. In kind it is cell-based, Staphylococcus pseudolugdunensis. Also on record: key: “R”, resistant; “S”, susceptible; “v”, variable.
Description: as §1

The next assay relates to isolate B739. Described as above. It is filed as cell-based, Staphylococcus pseudolugdunensis. The arrangement: key: “R”, resistant; “S”, susceptible; “v”, variable.
Description: as §1

The test system of a further assay is isolate B715. Described as above. Also on record: key: “R”, resistant; “S”, susceptible; “v”, variable. It is filed as cell-based, Staphylococcus pseudolugdunensis.
Description: as §1

Take `CO[C@@H]1[C@@H](OC(N)=O)[C@@H](O)[C@H](Oc2ccc3c(O)c(NC(=O)c4ccc(O)c(CC=C(C)C)c4)c(=O)oc3c2C)OC1(C)C` [Novobiocin]: the Resistance/Susceptibility result is on record as “S” with “S. pettenkoferi”; “S” in the assay with S. auricularis; “R” with isolate B287; “R” with isolate B837; “R” in the assay on isolate B334; “R” with isolate B277. The Resistance/Susceptibility result in the assay with isolate B292 is “R”; in the assay with S. epidermidis it was “S”; with S. lugdunensis it was “S”. Also, the “Summary: resistance percentage” value in the assay with Unknowns (n = 12) is 42 percentage.
For the compound Polymyxin B, the Resistance/Susceptibility result with S. auricularis is recorded as “S”; with isolate B006, “S”; in the assay with isolate B230, “S”; with isolate B060, “S”; with isolate B287, “S”; in the assay with isolate B837 it was “R”. The Resistance/Susceptibility entry was “S” in the assay with isolate B334; “S” in the assay on isolate B354; “S” with isolate B739; “S” with isolate B292; “S” in the assay on isolate B715; “R” with S. epidermidis. Moreover, the Resistance/Susceptibility entry with S. lugdunensis is “v”. The “Relative resistance of S. pseudolugdunensis to polymyxin B and novobiocin” value with Unknowns (n = 12) (Staphylococcus pseudolugdunensis bacteria) was “more resistant to polymyxin B than to novobiocin”. The “Summary: resistance percentage” value with Unknowns (n = 12) is 8 percentage.
